According to patent publication US20160067221A1, “USE OF ERGOTHIONEINE FOR INDUCING ACTIVITY OF NRF2 IN CELL” (China Medical University, priority 2014, published 2016):

Legend:
Type in all cases: cell-based, human
[1] = tested on: UVA-irradiated HaCaT cells; assay: TUNEL assay (UVA-induced apoptosis); settings: 500 nM 24 hours prior to UVA 15 J/cm^2, vs UVA alone
Protocol: The apoptosis can induce DNA double-strand breaks to generate a DNA fragment, To examine the effect of the ergothioneine on the UVA-induced apoptosis, an apoptotic cell death is measured using a terminal deoxyucleotidyl transferase-meditated dUTP-fluorescein nick end-labeking (TUNEL) assay, and protein expressions of apoptosis-related proteins, Caspase-3, Caspase-9, Bax and Bcl-2, are measured using a Western blot analysis. Therefore, the aforementioned methods in this example can analyze whether pretreating with the ergothioneine improves the UVA-induced apoptosis. A chromosome breakage represents an initial stage of a […]. The TUNEL assay is based on a presence of nicks in the DNA which can be identified by terminal deoxynucleotidyl transferase (TdT) at 3′ OH ends, ad the 3′ OH ends bind to dUTPs that are secondarily labeled with a fluorescent marker. After a coloration, the cells suffered the apoptosis can be identified. The HaCaT cells are incubated with or without the ergothioneine for 24 hours, wherein the concentration of the ergothioneine is 500 nM. After incubation, the HaCaT cells are exposed to the UVA (15 J/cm^2), and then cultured for 4 hours, Then, the HaCaT cells are incubated with TUNEL reaction buffer. The stained cells are visualized using the fluorescence microscope and photographed. […] FIG. 5-(B) is the quantitative diagram of the TUNEL assay.

HaCaT cells = assay: Cell viability by MTT assay, with or without UVA irradiation
Protocol: To examine a safety of the ergothioneine and a safe used dose of the ergothioneine to normal cells, HaCaT cells, human keratinocyte cell lines, are treated with different dose of the ergothioneine and then detected a cell viability.
The HaCaT cells are maintained at 37° C. in a humidified atmosphere of 5% CO2 in a culture medium (Dulbecco's modified Eagle medium/high glucose (DMEM) supplemented with 10% heat-inactivated fetal bovine serum (FBS)).
The cell viability is monitored using a method of […] (MTT assay). The HaCaT cells are seeded in a 12-well plate with 1×10^5 cells/well and then maintained at 37° C. in a humidified atmosphere of 5% CO2 untill the HaCaT cells are adhered in the next day. The HaCaT cells are subsequently incubated with or without the ergothioneine, and then maintained at 37° C. in a humidified atmosphere of 5% CO2 for 24 hours, wherein the concentration of the ergothioneine is 125 nM, 250 nM and 500 nM, respectively. Next, the HaCaT cells are washed with phosphate buffered saline (PBS) three times, and then irradiated with the UVA (15 J/cm^2). After the UVA irradiation, the PBS is replaced with the culture medium to culture the HaCaT cells for 4 hours. In next step, the culture medium is removed, the HaCaT cells are washed with PBS thrice, and then 450 μL of 1×MTT agent is added in each well to react at 37° C. in a humidified atmosphere of 5% CO2 for 2 hours. A culture supernatant is removed and re-suspended with 400 μL of isopropanol to dissolve MTT formazan. 200 μL of the supernatant is taken from the well and then added into a 96-well microplate to measure an absorbance at 570 nm.
The cell viability of the HaCaT cells is detected by the MTT assay.

[2] = tested on: Nrf2 knockdown HaCaT cells; assay: ROS generation in siRNA-transfected HaCaT cells; settings: 500 nM 24 hours
Protocol: The siRNA transfection includes steps as follows. The HaCaT cells are seeded in a 6-well plate with 4×10^5 cells/well and then maintained at 37° C. in the humidified atmosphere of 5% CO2 untill the time of the transfection. The day after reaching 40-60% confluence, the culture medium is replaced with 1 mL of FBS-free and antibiotic-free culture medium in each well, and the HaCaT cells are transfected with a siNrf2 or a control siRNA by using Lipofectamine 2000 (Invitrogen, U.S.A.) for 4-6 hours. After the incubation for 4-6 hours, the HaCaT cells are washed with the culture medium supplemented with 10% FBS 2-3 times, and then cultured in the culture medium supplemented with 10% FBS for 12-16 hours.
We further measure the amount of ROS generation in the HaCaT cells treated with the ergothioneine prior to 15 J/cm^2 UVA irradiation. The HaCaT cells are incubated with 500 nM ergothioneine for 24 hours after the siRNA transfection. After the incubation, the HaCaT cells are treated with or without the UVA irradiation (15 J/cm^2) for 4 hours, and then the HaCaT cells are subjected to detect the ROS generation.

[3] = tested on: UVA-irradiated HaCaT cells; assay: Total glutathione (GSH) content, DTNB method; settings: 125-500 nM 24 hours prior to 15 J/cm^2 UVA, 4 hours; dose-dependent
Text: A glutathione (GSH), the antioxidant in animal cells, can protect DNA against external oxidative stresses. Given that the ergothioneine treatment to the HaCaT cells can reduce the DNA damage of the HaCaT cells; this example next investigates the UVA-induced oxidative damage by determining a total GSH content of the HaCaT cells treated with the ergothioneine or the UVA irradiation. A glutathione disulfide (GSSG) is an oxidized form of the GSH, and the GSSG can be reduced to the GSH by a glutathione reductase. Antioxidant enzymes, such as glutathione peroxidases and peroxiredoxins, generate glutathione disulfide during the reduction of peroxides such as hydrogen peroxide (H2O2) and organic hydroperoxides (ROOH). The GSH generates a yellow-colored 5-thio-2-nitrobenzoic acid (TNB) and a […] GSTNB (between GSH and TNB) during the reaction of 5,5′-dithiobis-(2-nitrobenzoic acid) (DTNB), wherein the content of (GSSG+GSH) is the rate determining factor of color production in aforementioned reactions. The rate of the yellow-colored TNB production is directly proportional to the concentration of (GSSG+GSH) in a sample. Thus, measurement of the absorbance of the TNB provides an accurate estimation of the amount of total glutathione (GSSG+GSH) in the sample. […] The net absorbance at 405 nm yields an accurate amount of the total glutathione in the sample.

C[N+](C)(C)[C@@H](Cc1c[nH]c(=S)[nH]1)C(=O)[O-] [ergothioneine, 2-mercapto histidine trimethylbetain]
amount of TUNEL fluorescence (apoptosis) [1]: enormously reduced
cell death at respective dose of UVA irradiation (HaCaT cells; 500 nM for 2 hours, UVA 5-15 J/cm^2): significantly attenuated
cytotoxic effects (cell viability) (HaCaT cells; HaCaT cells, 125-500 nM, 24 hours): does not cause any cytotoxic effects
cell viability (HaCaT cells; pretreated with 500 nM, then UVA 15 J/cm^2, cultured 4 hours): 75.5%
UVA-induced cell death (HaCaT cells; pretreatment 125-500 nM, UVA 15 J/cm^2): attenuates a UVA-induced cell death in a dose-dependent manner
ROS generation ([2]; Nrf2 siRNA, UVA 15 J/cm^2): unable to decrease the ROS generation
ROS generation ([2]; control siRNA, UVA 15 J/cm^2, vs UVA alone): significantly reduced
total glutathione level [3]: increased
